{
  "source": "paper PMC5829263",
  "about": "“Homoarginine and inhibition of human arginase activity: kinetic characterization and biological relevance” (Scientific Reports, 2018)",
  "key": {"[1]": {"target": "T1, recombinant human arginase 1 (Homo sapiens, UniProt P05089)", "T1 sequence (P05089 1-322)": "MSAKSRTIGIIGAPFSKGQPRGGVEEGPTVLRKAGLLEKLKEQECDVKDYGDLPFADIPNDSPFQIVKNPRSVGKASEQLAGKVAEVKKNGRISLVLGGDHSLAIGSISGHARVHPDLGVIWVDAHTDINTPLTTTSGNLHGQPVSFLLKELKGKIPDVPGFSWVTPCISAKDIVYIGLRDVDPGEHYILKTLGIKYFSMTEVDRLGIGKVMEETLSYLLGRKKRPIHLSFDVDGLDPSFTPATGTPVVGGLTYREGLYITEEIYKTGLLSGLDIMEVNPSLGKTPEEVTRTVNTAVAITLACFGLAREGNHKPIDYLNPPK", "test": "Arginase 1 activity assay, kinetics of ARG conversion to ORN", "type": "biochemical", "settings": "conversion of ARG to ORN", "method": "Incubation mixtures contained HEK293T cell lysate expressing recombinant human arginase 1 (0.05 mg/mL) or arginase 2 (0.1 mg/mL), phosphate buffer (0.05 M, pH 7.4) and ARG (0 to 15 mM).\n(§1) Following a 5-min pre-equilibration period reactions were initiated by the addition of the cell lysate solution in 0.05 M phosphate buffer to a pre-equilibrated aqueous solution of the substrate (ARG).\n(§2) The samples were vortex mixed (20 sec) and cooled in an ice/water bath for 10 min prior to centrifugation (5 min, 18,000 × g, room temperature) to precipitate the proteins. An aliquot of the supernatant layer was diluted with a 7:3 mobile phase A/mobile phase B solution into glass UPLC vial inserts.\nKinetic data are the mean of three singlicate experiments."}, "[2]": {"target": "T2, recombinant human arginase 2 (Homo sapiens, UniProt P78540)", "T2 sequence (P78540 23-354)": "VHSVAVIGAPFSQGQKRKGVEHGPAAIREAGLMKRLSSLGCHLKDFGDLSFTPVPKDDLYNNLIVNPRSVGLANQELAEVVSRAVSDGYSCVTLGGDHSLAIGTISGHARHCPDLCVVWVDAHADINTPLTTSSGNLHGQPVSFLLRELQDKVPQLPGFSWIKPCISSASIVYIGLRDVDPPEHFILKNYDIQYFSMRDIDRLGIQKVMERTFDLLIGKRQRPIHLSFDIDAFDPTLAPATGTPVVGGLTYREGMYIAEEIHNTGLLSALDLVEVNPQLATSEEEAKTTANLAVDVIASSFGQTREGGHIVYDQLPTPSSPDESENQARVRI", "test": "Arginase 2 activity assay, kinetics of ARG conversion to ORN", "type": "biochemical"}, "[3]": {"system": "arginase 1", "settings": "arginase 1; range previously reported; cited from earlier work"}, "[4]": {"system": "arginase 2", "settings": "cited from earlier work"}, "[5]": {"target": "T1, recombinant human arginase 1", "test": "Arginase 1 inhibition, UPLC-MS measurement of ARG to ORN conversion in HEK293T cell lysate;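 for all read-outs here: arginase 1–expressing HEK293T lysate at 0.05 mg/mL in pH 7.4 phosphate buffer, inhibitor preincubated 5 min with enzyme, then reaction started by adding ARG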", "settings": "for remaining activity at 1 µM / remaining activity at 10 µM / remaining activity at 100 µM / remaining activity at 1000 µM / remaining activity at 10000 µM: read-out: % of control activity at the corresponding [Inhibitor] ± SE, arginase 1, mean of two experiments; for remaining activity at 1 µM: inhibitor 1 µM; for remaining activity at 10 µM: inhibitor 10 µM; for remaining activity at 100 µM: inhibitor 100 µM; for remaining activity at 1000 µM: inhibitor 1,000 µM; for remaining activity at 10000 µM: inhibitor 10,000 µM; for inhibition at 1000 µM: inhibitor 1 mM; for inhibition at 10000 µM: inhibitor 10 mM", "method": "as §1, §2\n(§3) Incubation mixtures comprised of HEK293T cell lysate expressing arginase 1 (0.05 mg/mL) or arginase 2 (0.1 mg/mL), phosphate buffer (0.05 M, pH 7.4), inhibitor (0, 0.1, 1, 10, 100, 1000 or 10000 μM) and ARG (0.1, 2 or 3 mM). Following a 5-min pre-incubation of the potential inhibitor with arginase 1 or arginase 2, reactions were initiated by the addition of a pre-equilibrated solution of the substrate ARG.\nKi values were derived from fitting the competitive inhibition equation to experimental data. Ki data are the mean of three singlicate experiments."}, "[6]": {"target": "T2, recombinant human arginase 2", "test": "Arginase 2 inhibition, UPLC-MS measurement of ARG to ORN conversion in HEK293T cell lysate;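 for all read-outs here: HEK293T lysate carrying arginase 2 at 0.1 mg/mL in 0.05 M phosphate buffer pH 7.4, inhibitor preincubated with enzyme 5 min before ARG addition started the reaction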", "settings": "for remaining activity at 1 µM / remaining activity at 10 µM / remaining activity at 100 µM / remaining activity at 1000 µM / remaining activity at 10000 µM: read-out: % of control activity at the corresponding [Inhibitor] ± SE, arginase 2, mean of two experiments; for remaining activity at 1 µM: inhibitor 1 µM; for remaining activity at 10 µM: inhibitor 10 µM; for remaining activity at 100 µM: inhibitor 100 µM; for remaining activity at 1000 µM: inhibitor 1,000 µM; for remaining activity at 10000 µM: inhibitor 10,000 µM; for inhibition at 1000 µM: inhibitor 1 mM; for inhibition at 10000 µM: inhibitor 10 mM", "method": "as §1, §2, §3\nSample were diluted 3:17 in mobile phase solution prior injection."}, "[7]": {"settings": "read-out: inhibition of arginase 1 activity, ARG 100 µM (physiological)"}, "[8]": {"settings": "read-out: inhibition of arginase 1 activity, ARG 3 mM (Km)"}, "[9]": {"settings": "read-out: inhibition of arginase 2, ARG 100 µM"}, "[10]": {"settings": "read-out: inhibition of arginase 2, ARG 2 mM"}},
  "note": "Where “and” joins values, the source holds several entries; their conditions need not be identical. Equal entries are not always repeated. Where two headings read alike, the source gives them in different places.",
  "data": [
    {"smiles": "N=C(N)NCCC[C@H](N)C(=O)O", "note": "[ARG, arginine]", "values": [
      {"measurement": "Vmax (nmol·min^−1·mg^−1) ± SE", "setting": "[1]; Expt 1", "result": "37 ± 1", "unit": "nmol/min/mg"},
      {"measurement": "Km", "setting": "[1]; Expt 1, read-out: Km (mM) ± SE", "result": "3.4 ± 0.4", "unit": "mM"},
      {"measurement": "Vmax (nmol·min^−1·mg^−1) ± SE", "setting": "[1]; Expt 2", "result": "32 ± 1", "unit": "nmol/min/mg"},
      {"measurement": "Km", "setting": "[1]; Expt 2, read-out: Km (mM) ± SE", "result": "3.8 ± 0.2", "unit": "mM"},
      {"measurement": "Vmax (nmol·min^−1·mg^−1) ± SE", "setting": "[1]; Expt 3", "result": "35 ± 1", "unit": "nmol/min/mg"},
      {"measurement": "Km", "setting": "[1]; Expt 3, read-out: Km (mM) ± SE", "result": "3.5 ± 0.2", "unit": "mM"},
      {"measurement": "Vmax (nmol·min^−1·mg^−1) ± SE", "setting": "[1]; Mean", "result": "34 ± 1", "unit": "nmol/min/mg"},
      {"measurement": "Vmax (pmol·min^−1·mg^−1) ± SE", "setting": "[2]; Expt 1", "result": "984 ± 8", "unit": "pmol/min/mg"},
      {"measurement": "Km", "setting": "[2]; Expt 1, read-out: Km (mM) ± SE", "result": "2.4 ± 0.1", "unit": "mM"},
      {"measurement": "Vmax (pmol·min^−1·mg^−1) ± SE", "setting": "[2]; Expt 2", "result": "837 ± 12", "unit": "pmol/min/mg"},
      {"measurement": "Km", "setting": "[2]; Expt 2, read-out: Km (mM) ± SE", "result": "1.7 ± 0.1", "unit": "mM"},
      {"measurement": "Vmax (pmol·min^−1·mg^−1) ± SE", "setting": "[2]; Expt 3", "result": "834 ± 5", "unit": "pmol/min/mg"},
      {"measurement": "Km", "setting": "[2]; Expt 3, read-out: Km (mM) ± SE", "result": "1.8 ± 0.1", "unit": "mM"},
      {"measurement": "Vmax (pmol·min^−1·mg^−1) ± SE", "setting": "[2]; Mean", "result": "883 ± 16", "unit": "pmol/min/mg"},
      {"measurement": "Km", "setting": "[2]; Mean, read-out: Km (mM) ± SE", "result": "1.9 ± 0.1", "unit": "mM"},
      {"measurement": "Km", "setting": "[3]", "result": "1000 to 9000", "unit": "µM"},
      {"measurement": "Km", "setting": "[4]; arginase 2, range previously reported", "result": "1000 to 7000", "unit": "µM"}
    ]},
    {"smiles": "NCCCC[C@H](N)C(=O)O", "note": "[LYS, lysine]", "values": [
      {"measurement": "Ki", "setting": "[4]; arginase 2 inhibition, ref Colleluori et al. 15", "result": 7000, "unit": "µM"},
      {"measurement": "inhibitory effect on arginase 1 activity at physiological inhibitor concentrations", "setting": "[5]; LYS 100–1000 µM, HOMOARG 1–10 µM", "result": "no significant inhibitory effects"},
      {"measurement": "inhibition model fitting the data", "setting": "[5]; arginase 1, poorly fit by uncompetitive, noncompetitive and mixed models", "result": "competitive"},
      {"measurement": "remaining activity at 1 µM", "setting": "[5]; ARG 100 µM", "result": "88 ± 21", "unit": "%"},
      {"measurement": "remaining activity at 10 µM", "setting": "[5]; ARG 100 µM", "result": "89 ± 10", "unit": "%"},
      {"measurement": "remaining activity at 100 µM", "setting": "[5]; ARG 100 µM", "result": "105 ± 18", "unit": "%"},
      {"measurement": "remaining activity at 1000 µM", "setting": "[5]; ARG 100 µM", "result": "56 ± 5", "unit": "%"},
      {"measurement": "remaining activity at 10000 µM", "setting": "[5]; ARG 100 µM", "result": "19 ± 1", "unit": "%"},
      {"measurement": "remaining activity at 1 µM", "setting": "[5]; ARG 3 mM", "result": "108 ± 13", "unit": "%"},
      {"measurement": "remaining activity at 10 µM", "setting": "[5]; ARG 3 mM", "result": "103 ± 10", "unit": "%"},
      {"measurement": "remaining activity at 100 µM", "setting": "[5]; ARG 3 mM", "result": "82 ± 4", "unit": "%"},
      {"measurement": "remaining activity at 1000 µM", "setting": "[5]; ARG 3 mM", "result": "63 ± 8", "unit": "%"},
      {"measurement": "remaining activity at 10000 µM", "setting": "[5]; ARG 3 mM", "result": "22 ± 1", "unit": "%"},
      {"measurement": "inhibition at 1000 µM", "setting": "[5]; [7]", "result": 44, "unit": "%"},
      {"measurement": "inhibition at 10000 µM", "setting": "[5]; [7]", "result": 81, "unit": "%"},
      {"measurement": "inhibition at 1000 µM", "setting": "[5]; [8]", "result": 39, "unit": "%"},
      {"measurement": "inhibition at 10000 µM", "setting": "[5]; [8]", "result": 78, "unit": "%"},
      {"measurement": "Ki", "setting": "[6]", "result": "500 ± 30", "unit": "µM"},
      {"measurement": "IC50", "setting": "[6]; IC50 ( ± SE), arginase 2, ARG 2 mM", "result": "900 µM and 880 µM"},
      {"measurement": "inhibition model fitting the data", "setting": "[6]; arginase 2, poorly fit by uncompetitive, noncompetitive and mixed models", "result": "competitive"},
      {"measurement": "inhibition of arginase 2 at physiological inhibitor concentrations", "setting": "[6]; physiological LYS and HOMOARG concentrations", "result": "no significant inhibition"},
      {"measurement": "remaining activity at 1 µM", "setting": "[6]; ARG 100 µM", "result": "92 ± 6", "unit": "%"},
      {"measurement": "remaining activity at 10 µM", "setting": "[6]; ARG 100 µM", "result": "97 ± 5", "unit": "%"},
      {"measurement": "remaining activity at 100 µM", "setting": "[6]; ARG 100 µM", "result": "78 ± 11", "unit": "%"},
      {"measurement": "remaining activity at 1000 µM", "setting": "[6]; ARG 100 µM", "result": "56 ± 14", "unit": "%"},
      {"measurement": "remaining activity at 10000 µM", "setting": "[6]; ARG 100 µM", "result": "12 ± 4", "unit": "%"},
      {"measurement": "remaining activity at 1 µM", "setting": "[6]; ARG 2 mM", "result": "88 ± 6", "unit": "%"},
      {"measurement": "remaining activity at 10 µM", "setting": "[6]; ARG 2 mM", "result": "82 ± 6", "unit": "%"},
      {"measurement": "remaining activity at 100 µM", "setting": "[6]; ARG 2 mM", "result": "84 ± 5", "unit": "%"},
      {"measurement": "remaining activity at 1000 µM", "setting": "[6]; ARG 2 mM", "result": "58 ± 1", "unit": "%"},
      {"measurement": "remaining activity at 10000 µM", "setting": "[6]; ARG 2 mM", "result": "33 ± 4", "unit": "%"},
      {"measurement": "inhibition at 1000 µM", "setting": "[6]; [9]", "result": 44, "unit": "%"},
      {"measurement": "inhibition at 10000 µM", "setting": "[6]; [9]", "result": 88, "unit": "%"},
      {"measurement": "inhibition at 1000 µM", "setting": "[6]; [10]", "result": 42, "unit": "%"},
      {"measurement": "inhibition at 10000 µM", "setting": "[6]; [10]", "result": 67, "unit": "%"}
    ]}
  ]
}
